Laboratory results reported in patent US20250230193A1, “CYCLIC COMPOUND HAVING SELECTIVE KRAS INHIBITORY EFFECT ON HRAS AND NRAS” (CHUGAI SEIYAKU KABUSHIKI KAISHA, priority 2022, published 2025).

How the values were obtained:
[1] = molecular target: GDP-bound NRAS wild-type protein (Homo sapiens, UniProt P01111); experiment: Binding to NRAS by surface plasmon resonance (SPR), Single Cycle Kinetics; settings: SPR, GDP-bound NRAS wild-type vs GDP-bound KRAS wild-type
[2] = molecular target: GDP-bound HRAS wild-type protein (Homo sapiens, UniProt P01112); experiment: Binding to HRAS by surface plasmon resonance (SPR), Single Cycle Kinetics; settings: SPR, GDP-bound HRAS wild-type vs GDP-bound KRAS wild-type
Sequence of GDP-bound HRAS wild-type protein (P01112 whole entry): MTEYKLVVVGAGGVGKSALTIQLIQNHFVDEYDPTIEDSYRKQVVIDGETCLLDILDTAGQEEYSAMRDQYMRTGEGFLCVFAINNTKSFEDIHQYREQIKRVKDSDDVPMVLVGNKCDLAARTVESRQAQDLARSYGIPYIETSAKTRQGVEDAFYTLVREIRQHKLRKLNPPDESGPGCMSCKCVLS

Sequence of GDP-bound NRAS wild-type protein (P01111 whole entry): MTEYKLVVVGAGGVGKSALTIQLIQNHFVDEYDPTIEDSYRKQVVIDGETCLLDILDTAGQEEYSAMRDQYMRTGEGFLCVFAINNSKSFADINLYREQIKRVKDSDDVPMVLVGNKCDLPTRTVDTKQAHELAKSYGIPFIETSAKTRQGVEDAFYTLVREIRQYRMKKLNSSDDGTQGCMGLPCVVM

| SMILES | NRAS/KRAS (ratio of KD value with respect to NRAS to KD value with respect to KRAS) [1] | HRAS/KRAS (ratio of KD value with respect to HRAS to KD value with respect to KRAS) [2] |
| --- | --- | --- |
| CCCN(C)C(=O)[C@@H]1CC(=O)N(C)[C@@H](C2CC2)C(=O)N[C@@H]([C@@H](C)CC)C(=O)N(C)CC(=O)N(C)[C@H]2C/C=C\CCN(C2=O)[C@@H](Cc2ccc(C(F)(F)F)cc2)C(=O)N(C)CC(=O)N[C@@H](CCc2ccc(C(F)(F)F)c(OC)c2)C(=O)N2C[C@@H](C)C[C@H]2C(=O)NC2(CCC2)C(=O)N(C)[C@@H](C2CCCC2)C(=O)N1C [PP2070] | A (a compound having 10 or more and less than 20 is denoted as A) | A (a compound having 10 or more and less than 20 is denoted as A) |
| CC[C@H](C)[C@@H]1NC(=O)[C@H](C2CCC2)N(C)C(=O)C[C@@H](C(=O)N(C)CC)N(C)C(=O)[C@H](C2CCCC2)N(C)C(=O)C2(CCC2)NC(=O)[C@@H]2C[C@H](C)CN2C(=O)[C@H](CCc2ccc(C(F)(F)F)c(OC)c2)NC(=O)CN(C)C(=O)[C@H](Cc2ccc(C(F)(F)F)cc2)N2CC/C=C\C[C@@H](C2=O)N(C)C(=O)CN(C)C1=O [PP2071] | A (a compound having 10 or more and less than 20 is denoted as A) | A (a compound having 10 or more and less than 20 is denoted as A) |
| CCCN(C)C(=O)[C@@H]1CC(=O)N(C)[C@@H](C2CCC2)C(=O)N[C@@H]([C@@H](C)CC)C(=O)N(C)CC(=O)N(C)[C@H]2C/C=C\CCN(C2=O)[C@@H](Cc2ccc(C(F)(F)F)cc2)C(=O)N(C)CC(=O)N[C@@H](CCc2ccc(C(F)(F)F)c(OC)c2)C(=O)N2C[C@@H](C)C[C@H]2C(=O)NC2(CCC2)C(=O)N(C)[C@@H](C2CCCC2)C(=O)N1C [PP2072] | A (a compound having 10 or more and less than 20 is denoted as A) | A (a compound having 10 or more and less than 20 is denoted as A) |
| C#CC[C@H]1C(=O)N[C@@H]([C@@H](C)CC)C(=O)N(C)CC(=O)N(C)[C@H]2C/C=C\CCN(C2=O)[C@@H](Cc2ccc(C(F)(F)F)cc2)C(=O)N(C)CC(=O)N[C@@H](CCc2cc(F)c(C(F)(F)F)c(F)c2)C(=O)N2C[C@H](OCC)C[C@H]2C(=O)NC2(CC(C)(C)C2)C(=O)N(C)[C@@H](C2CCCC2)C(=O)N(C)[C@H](C(=O)N(C)CC)CC(=O)N1C [PP2073] | A (a compound having 10 or more and less than 20 is denoted as A) | A (a compound having 10 or more and less than 20 is denoted as A) |
| C#CC[C@H]1C(=O)N[C@@H]([C@@H](C)CC)C(=O)N(C)CC(=O)N(C)[C@H]2C/C=C\CCN(C2=O)[C@@H](Cc2ccc(C(F)(F)F)cc2)C(=O)N(C)CC(=O)N[C@@H](CCc2cc(F)c(C(F)(F)F)c(F)c2)C(=O)N2C[C@H](OCC)C[C@H]2C(=O)NC2(CC(C)(C)C2)C(=O)N(C)[C@@H](C2CCCC2)C(=O)N(C)[C@H](C(=O)N(C)CCC)CC(=O)N1C [PP2074] | A (a compound having 10 or more and less than 20 is denoted as A) | A (a compound having 10 or more and less than 20 is denoted as A) |
| C#CC[C@H]1C(=O)N[C@@H]([C@@H](C)CC)C(=O)N(C)CC(=O)N(C)[C@H]2C/C=C\CCN(C2=O)[C@@H](Cc2ccc(C(F)(F)F)cc2)C(=O)N(C)CC(=O)N[C@@H](CCc2cc(F)c(C(F)(F)F)c(F)c2)C(=O)N2C[C@@H](C)C[C@H]2C(=O)NC2(CC(C)(C)C2)C(=O)N(C)[C@@H](C2CCCC2)C(=O)N(C)[C@H](C(=O)N(C)CC)CC(=O)N1C [PP2075] | A (a compound having 10 or more and less than 20 is denoted as A) | A (a compound having 10 or more and less than 20 is denoted as A) |
| C#CC[C@H]1C(=O)N[C@@H]([C@@H](C)CC)C(=O)N(C)CC(=O)N(C)[C@H]2C/C=C\CCN(C2=O)[C@@H](Cc2ccc(C(F)(F)F)cc2)C(=O)N(C)CC(=O)N[C@@H](CCc2cc(F)c(C(F)(F)F)c(F)c2)C(=O)N2C[C@@H](C)C[C@H]2C(=O)NC2(CC(C)(C)C2)C(=O)N(C)[C@@H](C2CCCC2)C(=O)N(C)[C@H](C(=O)N(C)CCC)CC(=O)N1C [PP2076] | A (a compound having 10 or more and less than 20 is denoted as A) | A (a compound having 10 or more and less than 20 is denoted as A) |
| C#CC[C@H]1C(=O)N[C@@H]([C@@H](C)CC)C(=O)N(C)CC(=O)N(C)[C@H]2C/C=C\CCN(C2=O)[C@@H](Cc2ccc(C(F)(F)F)cc2)C(=O)N(C)CC(=O)N[C@@H](CCc2cc(F)c(C(F)(F)F)c(F)c2)C(=O)N2C[C@@H](C)C[C@H]2C(=O)NC2(CCC2)C(=O)N(C)[C@@H](C2CCCC2)C(=O)N(C)[C@H](C(=O)N(C)CCC)CC(=O)N1C [PP2077] | A (a compound having 10 or more and less than 20 is denoted as A) | A (a compound having 10 or more and less than 20 is denoted as A) |
| CC[C@H](C)[C@@H]1NC(=O)[C@H](C(C)C)N(C)C(=O)C[C@@H](C(=O)N(C)CC)N(C)C(=O)[C@H](C2CCCC2)N(C)C(=O)C2(CCC2)NC(=O)[C@@H]2C[C@H](C)CN2C(=O)[C@H](CCc2cc(F)c(C(F)(F)F)c(F)c2)NC(=O)CN(C)C(=O)[C@H](Cc2ccc(C(F)(F)F)cc2)N2CC/C=C\C[C@@H](C2=O)N(C)C(=O)CN(C)C1=O [PP2078] | AA (a compound having 20 or more is denoted as AA) | A (a compound having 10 or more and less than 20 is denoted as A) |
| CCCN(C)C(=O)[C@@H]1CC(=O)N(C)[C@@H](C(C)C)C(=O)N[C@@H]([C@@H](C)CC)C(=O)N(C)CC(=O)N(C)[C@H]2C/C=C\CCN(C2=O)[C@@H](Cc2ccc(C(F)(F)F)cc2)C(=O)N(C)CC(=O)N[C@@H](CCc2cc(F)c(C(F)(F)F)c(F)c2)C(=O)N2C[C@@H](C)C[C@H]2C(=O)NC2(CCC2)C(=O)N(C)[C@@H](C2CCCC2)C(=O)N1C [PP2079] | A (a compound having 10 or more and less than 20 is denoted as A) | A (a compound having 10 or more and less than 20 is denoted as A) |
| CC[C@H](C)[C@@H]1NC(=O)[C@H](C2CC2)N(C)C(=O)C[C@@H](C(=O)N(C)CC)N(C)C(=O)[C@H](C2CCCC2)N(C)C(=O)C2(CCC2)NC(=O)[C@@H]2C[C@H](C)CN2C(=O)[C@H](CCc2cc(F)c(C(F)(F)F)c(F)c2)NC(=O)CN(C)C(=O)[C@H](Cc2ccc(C(F)(F)F)cc2)N2CC/C=C\C[C@@H](C2=O)N(C)C(=O)CN(C)C1=O [PP2080] | A (a compound having 10 or more and less than 20 is denoted as A) | A (a compound having 10 or more and less than 20 is denoted as A) |
| CCCN(C)C(=O)[C@@H]1CC(=O)N(C)[C@@H](C2CC2)C(=O)N[C@@H]([C@@H](C)CC)C(=O)N(C)CC(=O)N(C)[C@H]2C/C=C\CCN(C2=O)[C@@H](Cc2ccc(C(F)(F)F)cc2)C(=O)N(C)CC(=O)N[C@@H](CCc2cc(F)c(C(F)(F)F)c(F)c2)C(=O)N2C[C@@H](C)C[C@H]2C(=O)NC2(CCC2)C(=O)N(C)[C@@H](C2CCCC2)C(=O)N1C [PP2081] | A (a compound having 10 or more and less than 20 is denoted as A) | A (a compound having 10 or more and less than 20 is denoted as A) |
| CC[C@H](C)[C@@H]1NC(=O)[C@H](C2CCC2)N(C)C(=O)C[C@@H](C(=O)N(C)CC)N(C)C(=O)[C@H](C2CCCC2)N(C)C(=O)C2(CCC2)NC(=O)[C@@H]2C[C@H](C)CN2C(=O)[C@H](CCc2cc(F)c(C(F)(F)F)c(F)c2)NC(=O)CN(C)C(=O)[C@H](Cc2ccc(C(F)(F)F)cc2)N2CC/C=C\C[C@@H](C2=O)N(C)C(=O)CN(C)C1=O [PP2082] | AA (a compound having 20 or more is denoted as AA) | A (a compound having 10 or more and less than 20 is denoted as A) |
| CCCN(C)C(=O)[C@@H]1CC(=O)N(C)[C@@H](C2CCC2)C(=O)N[C@@H]([C@@H](C)CC)C(=O)N(C)CC(=O)N(C)[C@H]2C/C=C\CCN(C2=O)[C@@H](Cc2ccc(C(F)(F)F)cc2)C(=O)N(C)CC(=O)N[C@@H](CCc2cc(F)c(C(F)(F)F)c(F)c2)C(=O)N2C[C@@H](C)C[C@H]2C(=O)NC2(CCC2)C(=O)N(C)[C@@H](C2CCCC2)C(=O)N1C [PP2083] | A (a compound having 10 or more and less than 20 is denoted as A) | B (a compound having 3 or more and less than 10 is denoted as B) |
| C#CCN1CC(=O)N(C)[C@H]2C/C=C\CCN(C2=O)[C@@H](Cc2ccc(C(F)(F)F)cc2)C(=O)N(C)CC(=O)N[C@@H](CCc2cc(F)c(C(F)(F)F)c(F)c2)C(=O)N2C[C@H](OCC)C[C@H]2C(=O)NC2(CC(C)(C)C2)C(=O)N(C)[C@@H](C2CCCC2)C(=O)N(C)[C@H](C(=O)N(C)C)CC(=O)N(C)[C@@H](CC)C(=O)N[C@@H]([C@@H](C)CC)C1=O [PP2087] | A (a compound having 10 or more and less than 20 is denoted as A) | A (a compound having 10 or more and less than 20 is denoted as A) |
| C#CCN1CC(=O)N(C)[C@H]2C/C=C\CCN(C2=O)[C@@H](Cc2ccc(C(F)(F)F)cc2)C(=O)N(C)CC(=O)N[C@@H](CCc2ccc(C(F)(F)F)c(OC)c2)C(=O)N2C[C@H](OCC)C[C@H]2C(=O)NC2(CC(C)(C)C2)C(=O)N(C)[C@@H](C2CCCC2)C(=O)N(C)[C@H](C(=O)N(C)C)CC(=O)N(C)[C@@H](CC)C(=O)N[C@@H]([C@@H](C)CC)C1=O [PP2091] | A (a compound having 10 or more and less than 20 is denoted as A) | B (a compound having 3 or more and less than 10 is denoted as B) |
